Results taken from US20210238170A1, “5,5-Difluoro- and 5-Fluoro-5-Methyl-C-Glycoside Derivatives Useful As Dual SGLT1 / SGLT2 Modulators” (Janssen Pharmaceutica NV, priority 2018, published 2021).
pIC50: −log10 of the molar value.

Legend:
human SGLT1 = target: T1, human SGLT1 (Homo sapiens, UniProt P13866); experiment: SGLT1 in vitro assay: Na-dependent 14C-AMG uptake in CHO-K1 cells stably expressing human SGLT1; format: cell-based; conditions: CHO-K1 cells stably expressing human SGLT1, 14C-AMG uptake; for inhibition at 0.3 µM: read-out: SGLT1 % Inh @ 0.3 μM; for pIC50: compounds of formula (I) where R0 is fluoro
T1 construct: expressed in transfected cells
T1 sequence (P13866 1-664): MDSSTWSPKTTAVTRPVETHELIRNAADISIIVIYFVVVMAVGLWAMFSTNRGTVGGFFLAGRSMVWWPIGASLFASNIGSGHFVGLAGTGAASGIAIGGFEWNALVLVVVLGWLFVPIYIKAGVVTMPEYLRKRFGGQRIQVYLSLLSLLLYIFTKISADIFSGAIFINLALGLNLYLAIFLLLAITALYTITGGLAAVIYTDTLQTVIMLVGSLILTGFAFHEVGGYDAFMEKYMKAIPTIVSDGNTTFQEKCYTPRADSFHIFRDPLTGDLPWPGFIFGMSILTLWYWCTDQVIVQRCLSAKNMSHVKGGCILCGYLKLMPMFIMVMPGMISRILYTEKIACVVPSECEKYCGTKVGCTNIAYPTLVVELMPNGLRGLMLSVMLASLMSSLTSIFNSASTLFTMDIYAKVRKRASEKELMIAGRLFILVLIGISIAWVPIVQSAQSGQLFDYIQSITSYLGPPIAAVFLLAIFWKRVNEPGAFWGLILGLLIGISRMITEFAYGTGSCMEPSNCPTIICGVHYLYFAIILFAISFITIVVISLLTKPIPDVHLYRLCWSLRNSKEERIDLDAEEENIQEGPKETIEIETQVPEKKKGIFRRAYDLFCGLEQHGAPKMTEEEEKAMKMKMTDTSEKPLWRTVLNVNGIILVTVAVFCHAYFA
Experimental: (§1) Biological Example 1: SGLT1 and SGLT2 In Vitro Assays
(§2) The ability of the compounds of formula (I) of the present invention to treat an SGLT-mediated condition was determined using the following procedures:
(§3) SGLT1 and SGLT2 were cloned in form of cDNA from human small intestine (Genbank M24847), and from human kidney (Genbank M95549), respectively. Subsequently, each full cDNA was subcloned into pcDNA with each construct's integrity verified through follow-on sequencing. To generate CHO-K1 cells that stably express human SGLT1 or human SGLT2, CHO-K1 cells were transfected using DMRIE-C reagent (Life Technologies, Gaithersburg, Md.). Transfected cells were then selected in the presence of 500 μg/ml of the Geneticin (G418 Cellgro Catalog No. 30234-CI)
(§4) Individual clones were then characterized using the following cell-based assay for sodium-dependent glucose transport:
(§5) Inhibition of SGLT1 and SGLT2 activity was assessed in CHO K1 cells stably expressing either human SGLT1 or SGLT2, using the SGLT specific glucose analog methyl-glucopyranoside (Sigma Catalog No. M-9376). Cells were plated (45,000 cells/well) in white wall 96-well plates (COSTAR, Cat #3903) for 24 hours in growth medium, then a final concentration of 10 mM Na-Butyrate (ALDRICH Cat #30341-0) was added. The cells were incubated for 24 hours. On the day of the assay, cells were rinsed and treated with test compounds (at concentrations of 0.001 μM to 10 μM) in assay buffer (50 mM HEPES, 20 mM Tris base, 5 mM KCl, 1 mM MgCl2, 1 mM CaCl2 and 137 mM NaCl, pH 7.4) for 10 minutes. Cells were then incubated with ^14C-a-methyl-d-glucopyranoside (AMG, Amersham Catalog No. CFB 76), using 0.07 μCi per well in 500 µM AMG final concentration. The cells were incubated for 2 hours at 37° C. with 5% CO2 and washed two times with ice-cold Phosphate Buffer Solution (CELLGRO Catalog No. 21030-CV). The cells were then solubilized by adding 60 μl of MICROSCINT™ 20 and the Na-dependent ^14C-AMG uptake was quantified by measuring radioactivity. Plates were counted in a TopCount (Packard, Meriden, Conn.)
(§6) Representative compounds of the present invention were tested according to the procedures as described in Biological Example 1 and 2 above, with results as listed in Table 5, below. Results are reported as the %-inhibition or IC50 value. Variability for the functional assay was typically within 20%.

human SGLT2 = target: T2, human SGLT2 (Homo sapiens, UniProt P31639); experiment: SGLT2 in vitro assay: Na-dependent 14C-AMG uptake in CHO-K1 cells stably expressing human SGLT2; format: cell-based; conditions: CHO-K1 cells stably expressing human SGLT2, 14C-AMG uptake; for inhibition at 0.3 µM: read-out: SGLT2 % Inh @ 0.3 μM; for pIC50: compounds of formula (I) where R0 is fluoro
T2 construct: expressed in transfected cells
T2 sequence (P31639 1-672): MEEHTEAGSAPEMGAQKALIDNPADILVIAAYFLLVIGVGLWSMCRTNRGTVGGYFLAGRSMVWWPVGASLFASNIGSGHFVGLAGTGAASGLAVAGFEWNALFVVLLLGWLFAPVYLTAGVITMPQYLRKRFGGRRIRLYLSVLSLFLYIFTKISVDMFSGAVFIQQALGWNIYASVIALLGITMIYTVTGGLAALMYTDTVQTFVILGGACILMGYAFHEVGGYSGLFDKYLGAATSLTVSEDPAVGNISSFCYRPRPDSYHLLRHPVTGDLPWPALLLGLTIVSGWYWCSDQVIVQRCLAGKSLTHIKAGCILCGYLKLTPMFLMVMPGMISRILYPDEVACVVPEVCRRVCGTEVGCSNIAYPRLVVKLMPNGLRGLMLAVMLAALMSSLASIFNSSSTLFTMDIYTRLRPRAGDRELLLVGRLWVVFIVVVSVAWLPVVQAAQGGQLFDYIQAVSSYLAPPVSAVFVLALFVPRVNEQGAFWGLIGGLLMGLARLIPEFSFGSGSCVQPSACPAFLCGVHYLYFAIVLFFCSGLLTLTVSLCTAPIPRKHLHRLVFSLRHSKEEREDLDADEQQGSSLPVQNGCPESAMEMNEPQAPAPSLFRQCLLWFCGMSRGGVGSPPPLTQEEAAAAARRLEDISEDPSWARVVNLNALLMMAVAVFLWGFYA
Experimental: as §1, §2, §3, §4, §5, §6

| inhibition at 0.3 µM (human SGLT1) [%] | pIC50 (human SGLT1) | inhibition at 0.3 µM (human SGLT2) [%] | pIC50 (human SGLT2) | SGLT1 % Inh @ 0.3 μM (human SGLT1) [%] | SGLT2 % Inh @ 0.3 μM (human SGLT2) [%] | SMILES |
| --- | --- | --- | --- | --- | --- | --- |
| 78.8 | 7.02 | 82.8 | 7.35 | – | – | OC[C@H]1O[C@@H](c2cc(Cc3ccc(C4CC4)cc3)c(C3CC3)cc2O)[C@H](O)[C@@H](O)C1(F)F [Compound 141] |
| 84 | 7.24 | 85.2 | 9.05 | – | – | OC[C@H]1O[C@@H](c2cc(Cc3ccc4c(c3)OCC4)c(Cl)cc2O)[C@H](O)[C@@H](O)C1(F)F [Compound 111, (2S,3R,4R,6R)-2-(4-chloro-5-((2,3-dihydrobenzofuran-6-yl)methyl)-2-hydroxyphenyl)-5,5-difluoro-6-(hydroxymethyl)-tetrahydro-2H-pyran-3,4-diol] |
| – | – | – | – | 24.9 | 79.0 | COc1cc(O)c([C@@H]2O[C@H](CO)C(F)(F)[C@H](O)[C@H]2O)cc1Cc1ccc(OC(F)(F)F)cc1 [Compound 119] |
| 39.2 | – | 76.3 | – | – | – | COc1cc(C)c(Cc2cc3ccccc3s2)cc1[C@@H]1O[C@H](CO)C(F)(F)[C@H](O)[C@H]1O [Compound 35, (2S,3R,4R,6R)-2-[5-(benzothiophen-2-ylmethyl)-2-methoxy-4-methyl-phenyl]-5,5-difluoro-6-(hydroxymethyl)tetrahydropyran-3,4-diol] |
| 15.8 | – | 84.2 | – | – | – | COc1cc(OC)c([C@@H]2O[C@H](CO)C(F)(F)[C@H](O)[C@H]2O)cc1Cc1ccc2c(c1)OCCO2 [Compound 55, (2S,3R,4R,6R)-2-[5-(2,3-dihydro-1,4-benzodioxin-6-ylmethyl)-2,4-dimethoxy-phenyl]-5,5-difluoro-6-(hydroxymethyl)tetrahydropyran-3,4-diol] |
| 78.1 | 7.08 | 64.4 | 8.55 | – | – | CCc1ccc(Cc2cc([C@@H]3O[C@H](CO)C(F)(F)[C@H](O)[C@H]3O)c(O)cc2OC)cc1 [Compound 145] |
| – | – | – | – | 22.9 | 83.7 | CCc1ccc(Cc2cc([C@@H]3O[C@H](CO)C(F)(F)[C@H](O)[C@H]3O)c(OC)cc2CC)cc1 [Compound 130] |
| 52.7 | 6.80 | 74.6 | 7.44 | – | – | OC[C@H]1O[C@@H](c2cc(Cc3ccc4c(c3)OCCO4)c3c(c2O)OCC3)[C@H](O)[C@@H](O)C1(F)F [Compound 187] |
| – | – | – | – | 50.4 | 52.5 | CCc1ccc(Cc2cc([C@@H]3O[C@H](CO)C(F)(F)[C@H](O)[C@H]3O)c(O)cc2C2CC2)cc1 [Compound 137] |
| 79.6 | 7.89 | 87.8 | 8.51 | – | – | Cc1ccc(Cc2cc([C@@H]3O[C@H](CO)C(F)(F)[C@H](O)[C@H]3O)c(O)cc2C)cc1F [Compound 177] |
| – | – | – | – | 17.3 | 83.3 | N#Cc1cc(O)c([C@@H]2O[C@H](CO)C(F)(F)[C@H](O)[C@H]2O)cc1Cc1ccc(C2CC2)cc1 [Compound 173] |
| – | – | – | – | 21.6 | 76.8 | Cc1cc(O)c([C@@H]2O[C@H](CO)C(F)(F)[C@H](O)[C@H]2O)cc1Cc1ccc(-c2cccc(F)c2)s1 [Compound 71] |
| – | – | – | – | 5.8 | 85.4 | CCOc1cc(C)c(Cc2cc3ccccc3s2)cc1[C@@H]1O[C@H](CO)C(F)(F)[C@H](O)[C@H]1O [Compound 41] |
| – | – | – | – | 31.6 | 62.3 | COc1cc(O)c([C@@H]2O[C@H](CO)C(F)(F)[C@H](O)[C@H]2O)cc1Cc1cc2c(s1)CCN(C#N)C2 [Compound 134] |
| – | – | – | – | 20.4 | 84.4 | COc1cc(Cl)c(Cc2ccc([C@@H]3CCOC3)cc2)cc1[C@@H]1O[C@H](CO)C(F)(F)[C@H](O)[C@H]1O [Compound 50] |
| – | – | – | – | 24.9 | 62.1 | CN(C)c1ccc(Cc2cc([C@@H]3O[C@H](CO)C(F)(F)[C@H](O)[C@H]3O)cc3c2OCC3)cc1 [Compound 179] |
| – | – | – | – | 8.5 | 74.9 | CCc1ccc(Cc2cc([C@@H]3O[C@H](CO)C(F)(F)[C@H](O)[C@H]3O)c(OC)cc2C#N)cc1 [Compound 166] |
| 81.7 | 7.31 | 82 | 8.85 | – | – | OC[C@H]1O[C@@H](c2cc(Cc3ccc4c(c3)OCCO4)c(Cl)cc2O)[C@H](O)[C@@H](O)C1(F)F [Compound 45, (2S,3R,4R,6R)-2-[4-chloro-5-(2,3-dihydro-1,4-benzodioxin-6-ylmethyl)-2-hydroxy-phenyl]-5,5-difluoro-6-(hydroxymethyl)tetrahydropyran-3,4-diol] |
| 49.1 | 6.50 | 81.4 | 8.32 | – | – | Cc1cc(O)c([C@@H]2O[C@H](CO)C(F)(F)[C@H](O)[C@H]2O)cc1Cc1ccc(OC(F)F)cc1 [Compound 96, (2S,3R,4R,6R)-2-[5-[[4-(difluoromethoxy)phenyl]methyl]-2-hydroxy-4-methyl-phenyl]-5,5-difluoro-6-(hydroxymethyl)tetrahydropyran-3,4-diol] |
| – | – | – | – | 16.9 | 56.1 | COC(=O)N1CCc2sc(Cc3cc([C@@H]4O[C@H](CO)C(F)(F)[C@H](O)[C@H]4O)c(OC)cc3Cl)cc2C1 [Compound 65] |
| 17.3 | – | 84.7 | – | – | – | Cc1cc(O)c([C@@H]2O[C@H](CO)C(F)(F)[C@H](O)[C@H]2O)cc1Cc1ccc(OC(F)(F)F)cc1 [Compound 99, (2S,3R,4R,6R)-5,5-difluoro-2-(2-hydroxy-4-methyl-5-(4-(trifluoromethoxy)benzyl)phenyl)-6-(hydroxymethyl)-tetrahydro-2H-pyran-3,4-diol] |
